# In the NIST ThermoML archive (doi:10.1021/je300736k):
# Numbers after ± are expanded uncertainties.
# Details: Liquid, Closed cell (Static) method
vapor or sublimation pressure (278.15 K) [kPa],vapor or sublimation pressure (283.15 K) [kPa],vapor or sublimation pressure (288.15 K) [kPa],vapor or sublimation pressure (293.15 K) [kPa],vapor or sublimation pressure (298.15 K) [kPa],vapor or sublimation pressure (303.15 K) [kPa],vapor or sublimation pressure (308.15 K) [kPa],vapor or sublimation pressure (313.15 K) [kPa],vapor or sublimation pressure (318.15 K) [kPa],vapor or sublimation pressure (323.15 K) [kPa],Structure (SMILES)
0.704 ± 0.027,1.012 ± 0.027,1.449 ± 0.028,2.038 ± 0.028,2.838 ± 0.029,3.866 ± 0.029,5.229 ± 0.03,7.006 ± 0.032,9.295 ± 0.035,12.18 ± 0.037,CCCO [propan-1-ol]
0.071 ± 0.026,0.093 ± 0.026,0.13 ± 0.026,0.178 ± 0.026,0.253 ± 0.026,0.346 ± 0.026,0.477 ± 0.026,0.627 ± 0.027,0.828 ± 0.027,1.101 ± 0.027,"CC12CCC(CC1)C(C)(C)O2 [1,3,3-trimethyl-2-oxabicyclo[2.2.2]octane]"
